Columns and labels:
Experiment in all cases: Cell panel screen (CellTiter-Glo)
Type in all cases: cell-based, human
[1] = test system: CCF-STTG1; settings: CCF-STTG1 (Brain), 20 micromolar, 72 hrs
Procedure, shortened: (§1)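 Single-dose 20 μM (final), 72 h exposure; DMSO vehicle controls. Luminescence after 10-min reagent incubation → % growth inhibition = (untreated − treated)/(untreated − no-cell background) × 100.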

[2] = test system: Panc 03.27; settings: Panc 03.27 (Pancreas), 20 micromolar, 72 hrs
Procedure, shortened: as §1

[3] = test system: HT-1197; settings: HT-1197 (Urinary bladder), 20 micromolar, 72 hrs
Procedure, shortened: as §1

[4] = test system: BT-549; settings: BT-549 (Breast), 20 micromolar, 72 hrs
Procedure, shortened: as §1

[5] = test system: M059J; settings: M059J (Brain), 20 micromolar, 72 hrs
Procedure, shortened: as §1

[6] = test system: HCC1569; settings: HCC1569 (Breast), 20 micromolar, 72 hrs
Procedure, shortened: as §1

[7] = test system: MSTO-211-H; settings: MSTO-211-H (Lung), 20 micromolar, 72 hrs
Procedure, shortened: as §1

[8] = test system: NCI-H2347; settings: NCI-H2347 (Lung), 20 micromolar, 72 hrs
Procedure, shortened: as §1

[9] = test system: HCC1937; settings: HCC1937 (Breast), 20 micromolar, 72 hrs
Procedure, shortened: as §1

[10] = test system: HPAF-II; settings: HPAF-II (Pancreas), 20 micromolar, 72 hrs
Procedure, shortened: as §1

[11] = test system: NCI-H2405; settings: NCI-H2405 (Lung), 20 micromolar, 72 hrs
Procedure, shortened: as §1

[12] = test system: T47D; settings: T47D (Breast), 20 micromolar, 72 hrs
Procedure, shortened: as §1

[13] = test system: RL95; settings: RL95 (Uterus), 20 micromolar, 72 hrs
Procedure, shortened: as §1

[14] = test system: TCCSUP; settings: TCCSUP (Urinary bladder), 20 micromolar, 72 hrs
Procedure, shortened: as §1

[15] = test system: NCI-H28; settings: NCI-H28 (Lung), 20 micromolar, 72 hrs
Procedure, shortened: as §1

[16] = test system: NCI-H1770; settings: NCI-H1770 (Lung), 20 micromolar, 72 hrs
Procedure, shortened: as §1

[17] = test system: J82; settings: J82 (Urinary bladder), 20 micromolar, 72 hrs
Procedure, shortened: as §1

[18] = test system: HGC-27; settings: HGC-27 (Stomach), 20 micromolar, 72 hrs
Procedure, shortened: as §1

[19] = test system: ChaGo-K-1; settings: ChaGo-K-1 (Lung), 20 micromolar, 72 hrs
Procedure, shortened: as §1

[20] = test system: ZR-75-30; settings: ZR-75-30 (Breast), 20 micromolar, 72 hrs
Procedure, shortened: as §1

[21] = test system: T98G; settings: T98G (Brain), 20 micromolar, 72 hrs
Procedure, shortened: as §1

[22] = test system: HEC-1-A; settings: HEC-1-A (Uterus), 20 micromolar, 72 hrs
Procedure, shortened: as §1

[23] = test system: A704; settings: A704 (Kidney), 20 micromolar, 72 hrs
Procedure, shortened: as §1

[24] = test system: HCC1599; settings: HCC1599 (Breast), 20 micromolar, 72 hrs
Procedure, shortened: as §1

[25] = test system: BT-474; settings: BT-474 (Breast), 20 micromolar, 72 hrs
Procedure, shortened: as §1

[26] = test system: NCI-H1694; settings: NCI-H1694 (Lung), 20 micromolar, 72 hrs
Procedure, shortened: as §1

[27] = test system: HCC1395; settings: HCC1395 (Breast), 20 micromolar, 72 hrs
Procedure, shortened: as §1

[28] = test system: CW-2; settings: CW-2 (Colon), 20 micromolar, 72 hrs
Procedure, shortened: as §1

[29] = test system: C3A; settings: C3A (Liver), 20 micromolar, 72 hrs
Procedure, shortened: as §1

[30] = test system: SW13; settings: SW13 (Adrenal gland), 20 micromolar, 72 hrs
Procedure, shortened: as §1

[31] = test system: Bel-7402; settings: Bel-7402 (Liver), 20 micromolar, 72 hrs
Procedure, shortened: as §1

[32] = test system: A498; settings: A498 (listed under Lung), 20 micromolar, 72 hrs
Procedure, shortened: as §1

[33] = test system: NCI-H524; settings: NCI-H524 (Lung), 20 micromolar, 72 hrs
Procedure, shortened: as §1

[34] = test system: C8166; settings: C8166 (Leukemia), 20 micromolar, 72 hrs
Procedure, shortened: as §1

[35] = test system: Colo 205; settings: Colo 205, 20 micromolar, 72 hrs
Procedure, shortened: as §1

[36] = test system: NCI-H1623; settings: NCI-H1623 (Lung), 20 micromolar, 72 hrs
Procedure, shortened: as §1

Compound | Percent Inhibition [1] [%] | Percent Inhibition [2] [%] | Percent Inhibition [3] [%] | Percent Inhibition [4] [%] | Percent Inhibition [5] [%] | Percent Inhibition [6] [%] | Percent Inhibition [7] [%] | Percent Inhibition [8] [%] | Percent Inhibition [9] [%] | Percent Inhibition [10] [%] | Percent Inhibition [11] [%] | Percent Inhibition [12] [%] | Percent Inhibition [13] [%] | Percent Inhibition [14] [%] | Percent Inhibition [15] [%] | Percent Inhibition [16] [%] | Percent Inhibition [17] [%] | Percent Inhibition [18] [%] | Percent Inhibition [19] [%] | Percent Inhibition [20] [%] | also measured
Bannaxanthone E [bn-3] | 93 | 92 | 98 | 97 | 97 | 97 | 98 | 89 | 98 | 92 | 96 | 96 | 98 | 96 | 95 | 98 | 98 | 98 | 97 | 99 | Percent Inhibition [21]: 99%; Percent Inhibition [22]: 88%; Percent Inhibition [23]: 98%; Percent Inhibition [24]: 98%; Percent Inhibition [25]: 90%; Percent Inhibition [26]: 99%; Percent Inhibition [27]: 98%; Percent Inhibition [28]: 99%; Percent Inhibition [29]: 78%; Percent Inhibition [30]: 98%; Percent Inhibition [31]: 98%; Percent Inhibition [32]: 96%; Percent Inhibition [33]: 99%; Percent Inhibition [34]: 98%; Percent Inhibition [35]: 99%; Percent Inhibition [36]: 95%
O=c1c2cc(O)ccc2oc2cccc(O)c12 [gl-20] | 49 | 52 | 77 | 46 | 63 | 57 | 59 | 48 | 62 | 19 | -5 | 39 | 67 | 67 | 24 | -4 | 60 | 69 | 57 | 87 | Percent Inhibition [21]: 73%; Percent Inhibition [22]: 41%; Percent Inhibition [23]: 13%; Percent Inhibition [24]: 83%; Percent Inhibition [25]: 50%; Percent Inhibition [26]: 86%; Percent Inhibition [27]: 74%; Percent Inhibition [28]: 47%; Percent Inhibition [29]: 58%; Percent Inhibition [30]: 33%; Percent Inhibition [31]: -3%; Percent Inhibition [32]: 38%; Percent Inhibition [33]: 91%; Percent Inhibition [34]: 76%; Percent Inhibition [35]: 3%; Percent Inhibition [36]: -13%
C=C(C)C(O)Cc1c(O)cc2oc3cc(O)c(O)c(CC=C(C)C)c3c(=O)c2c1O (stereo not drawn) [bn-17, Bannaxanthone B] | 43 | 44 | 44 | 34 | 48 | 51 | 70 | 23 | 58 | 14 | 7 | 45 | 45 | 79 | 69 | 12 | 52 | 62 | 73 | 81 | Percent Inhibition [21]: 94%; Percent Inhibition [22]: 46%; Percent Inhibition [23]: 19%; Percent Inhibition [24]: 84%; Percent Inhibition [25]: 27%; Percent Inhibition [26]: 96%; Percent Inhibition [27]: 83%; Percent Inhibition [28]: 68%; Percent Inhibition [29]: 39%; Percent Inhibition [30]: 52%; Percent Inhibition [31]: 57%; Percent Inhibition [32]: 54%; Percent Inhibition [33]: -19%; Percent Inhibition [34]: 71%; Percent Inhibition [35]: 57%; Percent Inhibition [36]: 20%
